# Literature values in patent US5500226A, “Pharmaceutical composition having analgesic activity” (Zambon Group S.p.A., priority 1993, dated 1996).
# Settings: in words; vs Ibuprofen
smiles,measurement,value
"CC(C)Cc1ccc([C@H](C)C(=O)O)cc1 [(S)-Ibuprofen, S(+)-2-(4-isobutylphenyl)propionic acid]",Analgesic effect,"more rapid, and consequently a more lasting, analgesic effect than Ibuprofen"
